What all share (format): cell-based, rat
Assay [1] deals with VSC (visceral stromal cells=preadipocytes). Kind of assay: Induction of VSC-to-VAC differentiation (lipid droplet formation, photographs after culture).
Method: Mesenteric fat tissue was excised from the abdominal cavity of 3-5 week old male Sprague-Dawley rats (average body weight=100 g) and was washed three times with Hanks' balanced salt solution. The fat was minced with scissors and then incubated for 40 minutes at 37° C. in DMEM/F-12 culture medium containing 0.2% collagenase and 1.0% bovine albumin. The collagenase-digested tissue suspension was subsequently filtered through 600 μm mesh and Hanks' balanced salt solution was added. After centrifugation for 10 minutes at 800×g, the sediment was washed three times with Hanks' balanced salt solution and once with DMEM/F-12 culture medium and was then filtered through 100 μm mesh. The cell suspension thus prepared from the intraabdominal mesenteric fat was seeded to dishes at 0.5×10^5 cells/cm^2, and incubated at 37° C. and 5% CO2 in the culture medium with the indicated composition. The culture medium was changed once a day or once every two days. The culture medium was prepared by the addition of 17 mM pantothenic acid, 33 mM biotin, 100 mM ascorbic acid, 1 mM octanoic acid, 50 nM triiodothyronine, 100 unit/mL penicillin, and 100 mg/mL streptomycin to a basal culture medium of (DMEM)/F12 containing 10% NCS. Insulin and IGF-1 were added in the specified concentrations, and the resulting culture medium was used in the experiments described below.
Another assay deals with C/EBPα mRNA. Kind of assay: C/EBPα mRNA expression by real-time PCR. As to the method:
(§1) Differentiation conditions 1 to 12 in FIG. 2A correspond to the 1 to 12 in FIGS. 2B, 2C, and 2D (B: photographs after culture for 7 days; C: mRNA was separated after culture for 7 days, and the level of C/EBPα mRNA expression was measured by real-time PCR (the value on day 0 of culture was set at 1); D: the level of aP2 mRNA expression was measured by real-time PCR (the value on day 7 of culture for condition 1 was set at 1)).
(§2) A continuous 7-day culture was carried out in a culture medium containing 200 ng/mL IGF-1 (normal concentration in human blood=150 to 250 ng/mL), and the amount of mRNA expression was then measured for C/EBPα (adipocyte differentiation marker), aP2 (adipocyte differentiation marker), and C/EBPβ (differentiation marker for undifferentiated adipocytes). The results are shown in FIG. 5 (A: photographs after culture for 7 days. 1: cultured with 200 ng/mL IGF-1 for 3 days and then with 22 ng/mL insulin for 4 days. 2: cultured with 200 ng/mL IGF-1 and 22 ng/mL insulin for 7 days. 3: cultured with 200 ng/mL IGF-1 for 7 days. The 1 to 3 corresponds to lanes 1 to 3 in FIGS. 5B to 5D. B: mRNA was separated after the 7-day culture and the amount of C/EBPα mRNA expression was measured by real-time PCR. The value for a culture of 3 days with 10 μg/mL insulin and then 4 days with 22 ng/mL insulin was set at 1. C: mRNA was separated after the 7-day culture and the amount of aP2 mRNA expression was measured by real-time PCR. The value for a culture of 3 days with 10 μg/mL insulin and then 4 days with 22 ng/mL insulin was set at 1. D: mRNA was separated after the 7-day culture and the amount of C/EBPβ mRNA expression was measured by real-time PCR. The value for a culture of 3 days with 10 μg/mL insulin and then 4 days with 22 ng/mL insulin was set at 1.).
Additional investigations were then carried out into the IGF-1 concentration required for differentiation. Proceeding in the same manner as described above, VSCs were cultured for 7 days in the presence of 0.85 ng/mL insulin and IGF-1 at different concentrations. After culturing, mRNA was separated and the amount of C/EBPα mRNA expression was measured by real-time PCR. After culture for 7 days, mRNA was separated and the amount of C/EBPα mRNA expression and the amount of C/EBPβ mRNA expression were measured by real-time PCR. The value for the amount of mRNA expression for culture with 10 μg/mL insulin for 3 days followed by with 22 ng/mL insulin for 4 days was set at 1.

The subject of a further assay is aP2 mRNA. Kind of assay: aP2 mRNA expression by real-time PCR. As to the method:
as §1, §2
The influence of various combinations of IGF-1 and insulin on VAC differentiation induction and maturation was investigated. The results are shown in FIG. 6 (A: photographs after culture for 7 days. 1: cultured with 200 ng/mL IGF-1 for 3 days and then with 2.5 ng/mL insulin for 4 days. 2: cultured with 200 ng/mL IGF-1 and 2.5 ng/mL insulin for 7 days. 3: cultured with 200 ng/mL IGF-1 for 3 days and then with 0.85 ng/mL insulin for 4 days. 4: cultured with 200 ng/mL IGF-1 and 0.85 ng/mL insulin for 7 days. B: mRNA was separated after the 7-day culture and the amount of C/EBPβ mRNA expression was measured by real-time PCR. The value for a culture of 3 days with 10 μg/mL insulin and then 4 days with 22 ng/mL insulin was set at 1. C: mRNA was separated after the 7-day culture and the amount of aP2 mRNA expression was measured by real-time PCR. The value for a culture of 3 days with 10 μg/mL insulin and then 4 days with 22 ng/mL insulin was set at 1.).

The next assay deals with adiponectin mRNA. Kind of assay: Adiponectin mRNA expression by real-time PCR. The method, then:
The level of adiponectin mRNA expression was then examined with the aim of investigating the influence of the insulin concentration on VAC function (FIG. 3). After the VSCs had been differentiated by 10 μg/mL insulin for 3 days, they were then cultured for 4 days in the presence of 10 μg/mL insulin (lane 2), 0.2 μg/mL insulin (lane 3), 70 ng/mL insulin (lane 4), 22 ng/mL insulin (lane 5), or 7.4 ng/mL insulin (lane 6). After the 7-day culture, mRNA was separated and the amount of adiponectin mRNA expression was measured by real-time PCR. The value for the 7-day culture in the absence of insulin was set at 1. The results are shown in FIG. 3 (1: cultured for 7 days without insulin. 2: cultured for 7 days with 10 μg/mL insulin. 3: induction of differentiation for 3 days with 10 μg/mL insulin followed by culture for 4 days with 0.2 μg/mL insulin. 4: induction of differentiation for 3 days with 10 μg/mL insulin followed by culture for 4 days with 70 ng/mL insulin. 5: induction of differentiation for 3 days with 10 μg/mL insulin followed by culture for 4 days with 22 ng/mL insulin. 6: induction of differentiation for 3 days with 10 μg/mL insulin followed by culture for 4 days with 7.4 ng/mL insulin.).
(In general: Quantitative PCR measures a nucleic acid by following its amplification.)

For the next assay, the system named is adiponectin. Kind of assay: Adiponectin content of the culture medium (ELISA). The method, then: The conventionally used dexamethasone-based differentiation induction system was first evaluated. 2.5 μM dexamethasone and 10 μg/mL insulin or 10 μg/mL insulin was added to the medium to allow for VSC differentiation and maturation for 7 days. […] When dexamethasone was also added to the differentiation induction culture medium, single cell enlargement was promoted (FIG. 1B), although there was no difference in the differentiation efficiency. In addition, the norepinephrine-induced triglyceride degradation reaction was reduced (data not shown).
After 9-day culture with 200 ng/mL IGF-1 and different insulin concentrations, the culture medium was taken and the adiponectin content was measured by ELISA. When VSCs were cultured for 9 days with the constant presence of 200 ng/mL IGF-1 and insulin at a concentration of 10 μg/mL (lane 1), 70 ng/mL (lane 2), 22 ng/mL (lane 3), or 2.5 ng/mL (lane 4), the amount of adiponectin secretion was reduced at insulin concentrations of 70 ng/mL and above (FIG. 9A). When VSCs were cultured for the first 4 days with 200 ng/mL IGF-1 and 2.5 ng/mL insulin followed by 5 days with 200 ng/mL IGF-1 and insulin at a concentration of 10 μg/mL (lane 1), 70 ng/mL (lane 2), 22 ng/mL (lane 3), or 2.5 ng/mL (lane 4), adiponectin secretion was again reduced at insulin concentrations of 70 ng/mL and above (FIG. 9B). […]

In another assay the test system is insulin receptor. Nature of the assay: Insulin receptor expression by immunoblotting with anti-IR antibody. The method, then:
The amount of insulin receptor expression in the maturation process was then examined (FIG. 4). After the VSCs had been cultured for 7, 8, or 9 days, the total cell lysate (20 μg protein) was separated by SDS-PAGE and the IR was detected by immunoblotting with anti-IR antibody. In addition, actin was detected by immunoblotting with anti-actin antibody as the loading control. […] VSCs were cultured for 3 days in the presence of 10 μg/mL insulin or 200 ng/mL IGF-1, after which the total cell lysate (20 μg protein) was separated by SDS-PAGE and the insulin receptor was detected by immunoblotting with anti-insulin receptor (IR) antibody. Actin was detected by immunoblotting with anti-actin antibody as a loading control. […] After culture for 7 days, the total cell lysate (20 μg protein) was separated by SDS-PAGE and the IR was determined by immunoblotting with anti-IR antibody. Actin was detected by immunoblotting with anti-actin antibody as a loading control.
(Immunoblotting shows a protein as a band on a membrane.)

For a further assay, the system named is C/EBPβ mRNA. Nature of the assay: C/EBPβ mRNA expression by real-time PCR. As to the method:
as §2, with “real-time PCR. […] D: mRNA” for “real-time PCR. The value for a culture of 3 days with 10 μg/mL insulin and then 4 days with 22 ng/mL insulin was set at 1. D: mRNA”, “real-time PCR. […]” for “real-time PCR. The value for a culture of 3 days with 10 μg/mL insulin and then 4 days with 22 ng/mL insulin was set at 1.).”
The influence of various combinations of IGF-1 and insulin on VAC differentiation induction and maturation was investigated. […] C: mRNA was separated after the 7-day culture and the amount of aP2 mRNA expression was measured by real-time PCR. […]

Setting [2] is: 7-day culture with only IGF-1 (200 ng/mL), vs 10 μg/mL insulin then 22 ng/mL insulin.

With insulin, the lipid droplet formation entry is listed as “entirely absent” in assay [1] (0.2 μg/mL insulin, 7 days (condition 3)) and “same level” in assay [1] (10 μg/mL insulin for 3 days, then insulin reduced to 22 ng/mL (condition 11)). In addition, the lipid droplet accumulation result was “significant decline” in assay [1] (10 μg/mL insulin for 2 days followed by 0.2 μg/mL insulin, total of 7 days (condition 5)) and “significant decline” in assay [1] (3-day treatment with 10 μg/mL insulin without the ensuing 0.2 μg/mL insulin, vs system containing 0.2 μg/mL insulin). Further, in assay [1] (10 μg/mL insulin, 7 days (condition 2)), the “differentiation into adipocytes (lipid droplets)” value was “differentiation into adipocytes occurred”. In assay [1] (10 μg/mL insulin, VSC differentiation and maturation for 7 days), the fat accumulation result is recorded as “normal fat accumulation”. The “C/EBPα mRNA expression level” value in the assay with C/EBPα mRNA (10 μg/mL insulin for 2 days (conditions 4 and 5), 7 days) is reported as “did not increase”; in the assay on C/EBPα mRNA (10 μg/mL insulin for only 3 days followed by absence of insulin for 4 days (condition 6)), “did rise”; with C/EBPα mRNA (constant presence of 0.2 μg/mL insulin (condition 3), 7 days), “did not increase”. Also, the “aP2 mRNA expression level” value is listed as “the same level” with aP2 mRNA (10 μg/mL insulin for 3 days, then at least 22 ng/mL insulin (condition 11), vs constant 10 μg/mL insulin); “less aP2 expression” in the assay on aP2 mRNA (10 μg/mL insulin for 3 days, then insulin at or below 7.4 ng/mL (condition 12), vs constant 10 μg/mL insulin); “less aP2 expression” in the assay with aP2 mRNA (10 μg/mL insulin for only 2 days (condition 5), vs constant 10 μg/mL insulin); “less aP2 expression” in the assay on aP2 mRNA (constant presence of 0.2 μg/mL insulin, vs constant 10 μg/mL insulin (condition 2)). Moreover, the entries for the “level of adiponectin mRNA expression” value in the assay with adiponectin mRNA (10 μg/mL insulin for 3 days then 4 days 7.4 ng/mL insulin (lane 6)) and in the assay on adiponectin mRNA (7-day culture with 10 μg/mL insulin (lane 2) vs 3 days 10 μg/mL then 4 days 0.2 μg/mL to 22 ng/mL (lanes 3 to 5)) were “reduced” and “lower level”, respectively. In the assay with adiponectin (4 days 200 ng/mL IGF-1 and 2.5 ng/mL insulin, then 5 days 200 ng/mL IGF-1 and insulin at 70 ng/mL and above), the adiponectin secretion result is given as “again reduced”. Also, the “amount of adiponectin secretion” value in the assay with adiponectin (9 days, constant 200 ng/mL IGF-1 and insulin at 70 ng/mL and above (vs 22 or 2.5 ng/mL)) is given as “reduced”. Further, the “amount of insulin receptor expression” value in the assay on insulin receptor (3-day induction with 10 μg/mL insulin vs 200 ng/mL IGF-1 or 200 ng/mL IGF-1 and 22 ng/mL insulin) was “decline”. Moreover, the insulin receptor expression entry with insulin receptor (3 days 10 μg/mL insulin, maturation with 22 ng/mL, then culture with insulin at 70 ng/mL or greater vs 22 ng/mL, 7, 8 or 9 days) is on record as “substantial decline”.
For insulin-like growth factor-1 [IGF-1], the “accumulation of lipid droplets” value in assay [1] (200 ng/mL IGF-1 alone, 7 days) is reported as “not seen”. Moreover, in assay [1] (IGF-1 concentrations of 50 ng/mL and below, plus 0.85 ng/mL insulin, 7 days), the differentiation efficiency entry was “decline”. Also, the “expression of C/EBPα mRNA” value in the assay with C/EBPα mRNA (setting [2]) is recorded as “increased”. Moreover, the “amount of C/EBPα mRNA expression” value in the assay with C/EBPα mRNA (as a function of the IGF-1 concentration (10 to 800 ng/mL) plus 0.85 ng/mL insulin, 7 days) is recorded as “no changes”. Moreover, the “expression of aP2 mRNA” value with aP2 mRNA (setting [2]) was “increased”. For the same substance, the “amount of C/EBPβ mRNA” value in the assay on C/EBPβ mRNA (7-day culture with IGF-1 alone (200 ng/mL; FIG. 5D, lane 3)) was “maintained”. The “amount of C/EBPβ mRNA expression” value in the assay with C/EBPβ mRNA (IGF-1 concentrations of 50 ng/mL or less vs 200 ng/mL IGF-1, plus 0.85 ng/mL insulin, 7 days) is “increased amounts of expression”.

For the origin of these results see patent US20090233326A1, “METHOD FOR INDUCTION OF THE DIFFERENTIATION OF VISCERAL FAT CELL” (priority 2006, published 2009).
